Patent EP0883624B1, “TETRAETHER LIPIDS AND LIPOSOMES CONTAINING SAID LIPIDS, AND USE OF THE SAME” (Humatrix AG, priority 1996, dated 1997)

Assay: Capacitance of a black lipid membrane
Type: physicochemical
Details: Porengröße von 0,8 mm
Text: Das Überspannen von Poren mit einer Lipidschicht ermöglicht nicht nur Einsatz solcher Systeme bei Separations- und Transportvorgängen (Dialyse, Umkehrosmose etc.), sondern auch im Bereich von Piezo- und Pyroelektrik, Mikrokondensatortechnik, nicht-linearer Optik und Biosensorik. Die Kapazität einer stabilen Black-Lipid-Membran aus TEL ist bei einer Porengröße von 0,8 mm 0,744 µF/cm^2.

With “2,3,2',3'-Tetra-O-dibiphytanyl-di-sn-glycerol-1'-β-gulosyl-1-phosphoryl-3"-sn-glycerols [TEL]” as the substance, how does the “Kapazität einer stabilen Black-Lipid-Membran” value read?
The value was 0,744 µF/cm^2.
